In patent publication US9301922B1, “Stable high strength pharmaceutical composition of levoleucovorin” (APROFOL AG, priority 2013, dated 2016) one finds Solubility in water data, which are given here for one molecule.

The data set can be described thus: Solubility in water (observation). It is filed as physicochemical. The procedure: 4.0 g of levoleucovorin calcium (6.7 mmol) are suspended in 100 ml water. The slurry is heated up to about 40° C. to obtain a clear solution. 1.0 g of zinc acetate dihydrate (4.6 mmol) in 10 ml water is slowly added. A precipitate is formed immediately. After one day the precipitate is separated from the mother liquor.

Take `Nc1nc2c(c(=O)[nH]1)N(C=O)[C@@H](CNc1ccc(C(=O)N[C@@H](CCC(=O)[O-])C(=O)[O-])cc1)CN2.[Zn+2]` [levoleucovorin zinc]: the Solubility in water entry is reported as “almost insoluble in water”.
